Assay results taken from EP0705258B1, “AZOLYL-CYCLIC AMINE DERIVATIVES WITH IMMUNOMODULATORY ACTIVITY” (Knoll AG, priority 1993, dated 1995).
Counter-ions that a name gives are not always drawn.

Experiments:
[1] = test system: tumour necrosis factor-α (TNF-α); experiment: Mouse Tumour Necrosis Factor Test (Test B), mouse endotoxin shock model, serum TNF-α by ELISA; type: in vivo, BALB/c mice; conditions: Mus musculus; minimum effective oral dose giving significant reduction in serum TNF-α of ≥35%; dosed 2 h before LPS i.p.; ≤ = active at dose given but not tested at lower doses; read-out: MTNF:MED
From the text: Preferred compounds of the present invention are active in an in-vivo test which determines the ability of the compounds to inhibit the release of tumour necrosis factor-α (TNF-α) in a mouse endotoxin shock model (Test B). This model is similar to that described by Zuckerman and Bendele (1989), Infection and Immunity 57 (10): p3009-3013.
Each compound of formula I was combined with a carrier of a solution of 1.5% v/v sorbitan esters under the trade name Tween 80 and 0.25% v/v cellosize in sterile water (100 µl) and was administered orally to a group of four BALB/c mice. The concentration of compound was such as to provide dosages selected from 100, 30, 10, 3, 1, 0.1 and 0.03 mg/kg. Two hours after such oral administration, lipopolysaccharide (LPS) (E. coli 0127:B8) (100 µg) in sterile water (0.2 ml) was administered intraperitoneally to the test mice.
A control group of eight BALB/c mice was treated in a similar manner as the test group except that no test compound was included with the carrier.
One hour after LPS administration the mice were killed and blood was collected by cardiac puncture. The blood was incubated at 20°C for 2 hours and the serum was separated from the clotted blood following centrifugation. Serum tumour necrosis factor-α (TNF-α) levels were assayed by an enzyme-linked immunosorbent assay (ELISA) and the concentration of TNF-α in each of the drug-treated groups was compared with the control group by one-way analysis of variance followed by a multiple t-test.
The ELISA was carried out by coating a 96-well vinyl assay plate (Costar) overnight at 4°C with 50 µl per well of 2 µg/ml hamster anti-mouse TNF monoclonal antibody in 0.1M sodium hydrogen carbonate buffer at pH 8.2. After washing the plate with phosphate buffered saline (PBS) containing 0.05% v/v sorbitan esters under the trade name Tween 20 (wash buffer), a blocking/dilution buffer (10% sheep serum in PBS containing 0.1% v/v sorbitan esters under the trade name Tween 20 (200 µl)) was aliquoted to each well and incubated at 37°C for 0.5 hours. After aspirating the blocking buffer, the serum samples and pure TNF (as a standard) diluted in blocking/dilution buffer, were added to the wells and incubated at 37°C for 2 hours. After washing with the wash buffer, a polyclonal rabbit anti-mouse TNF-α antibody in blocking/dilution buffer (100 µl of a 1 in 10,000 dilution) was added and incubated for a further 1.5 hours at 37°C. After further washes, anti-rabbit IgG peroxidase conjugate (100 µl of a 1 in 4000 dilution) was added and incubated at 37°C for 0.5 hours. After further washing, the substrate solution (100 µl per well of 0.1 mg/ml 3,3', 5,5'-tetramethylbenzidine dihydrochloride in 0.1M phosphate citrate buffer, pH 5.0, to which 2 µl of 30% hydrogen peroxide per 10 ml was added just before use) was added and the colour allowed to develop. The reaction was stopped by the addition of 1M sulphuric acid (25 µl) and the optical density read in a multichannel spectrophotometer at 450 nm. The mean TNF-α concentration was determined by comparison with the standard curve and the mean TNF-α concentration for each group compared with that produced by the control group. Drug treatments which cause a statistically significant reduction in TNF-α concentration of ≥35% at a single dose at 100 mg/kg or less were considered active.

[2] = test system: Zymosan Stimulated Macrophages; experiment: Inhibition of Arachidonic Acid Release from Zymosan Stimulated Macrophages (Test D); type: cell-based, MF1 mice; conditions: Mus musculus, Macrophage, tested at 100, 50, 20, 10, 5 and 1 µM
Procedure: Female MF1 mice (weighing 20 to 25 g) were killed using a rising concentration of CO2. The mice were laid on their backs and the abdomens wiped with 70% alcohol. The skin was pulled back, exposing the peritoneal wall. Medium A (5 ml) (see below) was injected into the peritoneal cavity of each mouse followed by approximately 1 ml of air using a 20 ml syringe and a 21G x 40 mm needle in order to form a suspension of macrophage cells. The medium and cells were then removed using a 19G x 40 mm needle. The resulting suspension was returned to a sterile beaker kept on ice. The extracts from all the mice were pooled and this pooled cell suspension was counted using a Coulter counter and adjusted to a final cell count of 1 - 1.3 x 10^6 cells/ml prior to labelling with [^3H]-arachidonic acid. Typically five mice provided sufficient cells for each multiwell plate. Sufficient [^3H]arachidonic acid in ethanol to give a final concentration of 1.6 µCi/ml (equivalent to 40 µCi/plate) was blown to dryness under nitrogen. The arachidonic acid was then resuspended in 1 or 2 ml of the cell suspension which was then mixed with the remainder of the cell suspension in a centrifuge bottle. The labelled cell suspension was then plated out into sterile plastic 96 flat-bottomed well plates (250 µl per well) and incubated overnight at 37°C in a moist atmosphere of 5% CO2, 95% air. The following day, non-adherent cells were removed by washing 3 times with sterile phosphate buffered saline (PBS). The adherent peritoneal macrophages were then cultured for a further 24 hours in the presence or absence of drugs, in medium B (see below) at 37° in a 5% CO2 atmosphere in order to measure the effects of drugs on the spontaneous release of arachidonic acid in the absence of stimulus. After this incubation, supernatants were removed to give media 1 and stored in sealed multi-well plates at 4°C prior to scintillation counting. Drugs which potentiated spontaneous release of arachidonic acid (125% of controls) were deemed to be toxic at the concentration at which this phenomenon occurred. The supernatants were replaced by fresh medium C containing fresh drug and a stimulus. Three drugs were tested at six concentrations (100, 50, 20, 10, 5 and 1 µM) in replicates of four on each plate. The other wells contained controls consisting of a positive control (e.g. dexamethasone), medium (B) only and medium C only. Incubation was then continued for a further 5 hours, whereupon the supernatants were collected to give media 2 and the adherent cells washed with PBS. The cells were then lysed with 100 µl of 0.1% TRITON® X100 in a 0.1% solution of bovine serum albumin in 0.9% saline and mechanically disrupted to give cell lysates. These supernatants (media 2) and cell lysates (Cells) were also stored in sealed multi-well plates at 4°C prior to scintillation counting. 200 µl aliquots of media, or 100 µl aliquots of cells were counted using 2 ml of OPTIPHASE "HIGH SAFE" (Trademark of LKB) as scintillant. […] The value for the arachidonic acid release in the absence of stimulus (spontaneous, cpm of media 2) from cells which had been exposed to neither stimulus nor drug was subtracted from all equivalent values (cpm media 2, stimulated with or without drug) to give the net stimulated release. The percentage inhibition of arachidonic acid release caused by a drug may then be calculated using the following equation. % Inhibition = 100 -(net stimulated release in presence of drug x 100)/(net stimulated release in absence of drug) [formula] […] The zymosan stimulant was prepared as follows:- zymosan (200mg) (supplied by Sigma) was added to PBS (20ml). The mixture was boiled for 30 minutes and the volume restored to 20ml with water. The zymosan was harvested by centrifugation at 500Xg for 5 minutes, washed twice by resuspension in PBS (10ml) and centrifugation. After the final separation, the zymosan was resuspended in 20ml PBS and stored as lml aliquots at -20°C. […]

[3] = test system: lymphocyte proliferation (BALB/c responder and mitomycin C treated C57BL/6 stimulator spleen cells); experiment: Mixed Lymphocyte Reaction (Test A), one-way MLR, tritiated thymidine incorporation; type: cell-based, mice; conditions: Mus musculus; concentration causing 50% inhibition of lymphocyte proliferation, by linear interpolation; ≤ = active at this concentration but not tested at lower doses
Procedure: A mixed lymphocyte reaction (MLR) occurs when lymphocytes from two genetically dissimilar individuals, or inbred strains of mice are cultured together. An MLR results in the activation and proliferation of lymphocytes, which is measured by the incorporation of radiolabelled thymidine into the cellular DNA synthesised during cell division. A 'one-way' MLR is used to determine the immunosuppressive activity of test compounds in vitro. In this reaction one population of spleen cells serves as the stimulator cells and is treated with mitomycin C to prevent cell division. Spleen cells from a second allogeneic population (responder cells) are untreated and when mixed with the stimulator cells are able to undergo division which is measured. The degree of proliferation is measured in the presence and absence of test compound to assess the immunosuppressive activity of the compound.
The techniques for carrying out lymphocyte proliferation assays including MLRs are well known, eg Bradley, pages 156-166, in Mishell and Shiigi, Eds. Selected Methods in Cellular Immunology (Freeman, San Francisco, 1980); and Battisto et al, methods in Enzymology 1987; 150: 83-91. Various slight modifications of these techniques are in use and that used herein is described in Gibb, Webber and Bowen, J Immunological Methods 1985; 81: 107-113.
Cell suspensions obtained from the spleens of female BALB/c and C57BL/6 strain mice of between 6 and 9 weeks of age were used as sources of responder and stimulator cells respectively. The mice were killed using a rising concentration of CO2 and the spleens removed aseptically and teased using a scalpel and forceps to produce a single cell suspension in Hanks balanced salt solution (HBSS). The suspensions were filtered through cell strainers (Falcon), sedimented by centrifugation and resuspended in Tris-buffered ammonium chloride pH 7.2 (medium D) to lyse the erythrocytes. The cells were sedimented again and washed twice in HBSS before resuspending in complete RPMI 1640 tissue culture medium (medium E). The C57BL/6 cells were resuspended to 9 mls per spleen and a solution of mitomycin C at 400 µg/ml in medium E added to give a final concentration of 40 µg/ml. After incubation of the C57BL/6 cells at 37°C for 30 minutes in an atmosphere of 5% CO2 and 95% air, the cells were sedimented and washed 3 times in medium E. Both cell suspensions were diluted in medium E to 5 x 10^6 cells/ml. 100µl of each of the responder and stimulator cell suspensions were aliquoted into the wells of 96 well flat bottom microtitre plates containing 50 µl of test compound at an appropriate dilution (initially 50 µM diluted in medium E from a stock solution at 100 mM in dimethyl sulphoxide) giving a final test compound concentration of 10 µM (final dilution). Compounds active at this concentration were tested at further final dilution of 1 µM, 0.1 µM and 0.01 µM and 0.001 µM to determine the concentration of test compound which causes 50% inhibition of the immune response (IC50). After four days of culture at 37°C in a humidified atmosphere of 5% CO2 and 95% air, 1 µCi of tritiated thymidine in 20 µl of medium E was added to each well and the plates incubated for a further 24 hours. Cells were then harvested onto Inotech G7 glass fibre filter mats using an Inotech cell harvester. The filters were transferred to vials to which 2 ml of Packard Emulsifier-Safe scintillation fluid was added and the radioactivity from the incorporated thymidine was counted in a Packard liquid scintillation counter. The counts per minute (CPM) reflect the degree of lymphocyte proliferation. The data were analysed to determine the percentage inhibition of lymphocyte proliferation by the test compound. […]

| SMILES | IC50 [2] | minimal effective dose [1] | IC50 [3] |
| --- | --- | --- | --- |
| O=C(CCCN1CCC(CCn2ccnc2)CC1)c1ccccc1 [Example 88, 4-[2-(Imidazol-1-yl)ethyl]-1-(4-oxo-4-phenylbutyl)piperidine] | 52 µM | ≤ 30 mg/kg | – |
| c1ccc(CCCC2CCN(CCn3ccnc3)CC2)cc1 [Example 96, 1-[2-(imidazol-1-yl)ethyl]-4-(3-phenylpropyl)piperidine, dihydrochloride monohydrate] | 34 µM | – | 0.01 µM |
| c1ccc(CCCN2CCCC(CCn3ccnc3)C2)cc1 (stereo not drawn) [Example 99, 3-[2-(Imidazol-l-yl)ethyl]-1-(3-phenylpropyl)piperidine] | 58 µM | 100 mg/kg | – |
| c1ccc(CCCN2CCCCC2CCn2ccnc2)cc1 (stereo not drawn) [Example 100, 2-[2-(Imidazol-1-yl)ethyl]-1-(3-phenylpropyl)piperidine] | 27 µM | 100 mg/kg | – |
| c1ccc(CCCN2CCC(CCn3ncnn3)CC2)cc1 [Example 121, 1-(3-Phenylpropyl)-4-[2-(2H-tetrazol-2-yl)ethyl]piperidine] | – | 100 mg/kg | ≤ 1 µM |
| c1ccc2c(c1)CCC(CN1CCC(CCn3ccnc3)CC1)C2 (stereo not drawn) [Example 125, 4-[2-(Imidazol-1-yl)ethyl]-1-(1,2,3,4-tetrahydronaphth-2-ylmethyl)piperidine] | – | 30 mg/kg | 2.2 µM |
| CC(CCN1CCC(CCn2ccnc2)CC1)c1ccccc1 (stereo not drawn) [Example 126, 4-[2-(Imidazol-1-yl)ethyl]-1-(3-phenylbutyl)piperidine] | – | ≤ 100 mg/kg | 3.7 µM |

More lines, main results first:

| IC50 [2] | SMILES | minimal effective dose [1] | IC50 [3] |
| --- | --- | --- | --- |
| 18 µM | c1ccc(CCCN2CCCC(Cn3ccnc3)C2)cc1 (stereo not drawn) [Example 101, 3-Imidazol-1-ylmethyl-1-(3-phenylpropyl)piperidine] | 100 mg/kg | – |
| 22 µM | CC(C)c1nccn1CCC1CCN(CCCc2ccccc2)CC1 [Example 106, 4-[2-(2-Isopropylimidazol-1-yl)ethyl]-1-(3-phenylpropyl)piperidine] | – | 0.5 µM |
| 22 µM | CCc1nccn1CCC1CCN(CCCc2ccccc2)CC1 [Example 107, 4-[2-(2-Ethylimidazol-1-yl)ethyl]-1-(3-phenylpropyl)piperidine] | – | ≤ 0.01 µM |
| 20 µM | CCCc1nccn1CCC1CCN(CCCc2ccccc2)CC1 [Example 110, 1-(3-Phenylpropyl)-4-[2-(2-propylimidazol-1-yl)ethyl]piperidine] | – | 0.2 µM |
| 100 µM | c1ccc(CCCN2CCC(CCn3nccn3)CC2)cc1 [Example 120, 1-(3-Phenylpropyl)-4-[2-(2H-1,2,3-triazol-2-yl)ethyl]piperidine] | – | 4.2 µM |
